Test results as given in US12201610B2, “Compositions comprising aticaprant” (Janssen Pharmaceuticals, Inc., priority 2022, dated 2025).

Test system: subjects with MDD
Test: SHAPS total score / anhedonia level (Example 6)
Format: in vivo, human
Conditions: for SHAPS Total Score Change from Baseline LSMean (SE) / SHAPS Total Score LSMean Difference (SE) Treatment Placebo: MMRM; for SHAPS Total Score Effect Size: negative favors aticaprant
Description: To assess a potential effect on anhedonia, an anhedonia scale may be used. For example, the Snaith-Hamilton Pleasure Scale (SHAPS) analysis is a validated scale for the measurement of anhedonia. The SHAPS is a subject completed scale in which subjects score whether or not they experience pleasure in performing a list of activities or experiences. The SHAPS is a self-reported 14-item instrument, developed for the assessment of hedonic capacity. Subjects score whether they experience pleasure in performing a list of activities or experiences. Subjects can rate the answers as 1-4 where 1 indicates “Definitely agree”, 2 indicates “Agree”, 3 indicates “Disagree” and 4 indicates “Definitely disagree”. The subject's item responses are summed to provide a total score ranging from 14 to 56. A higher total SHAPS score indicates higher levels of current anhedonia. Physician/clinical judgment can be used to assess anhedonia separately or in conjunction with an anhedonia scale.
In some embodiments, the patient has moderate anhedonia. In other embodiments, the patient has severe anhedonia. An assessment of moderate or severe anhedonia is typically determined physician/clinical judgment and/or by one or more tests that provide insight into whether a patient has anhedonia. For example, the severity of the anhedonia may be determined using the SHAPS method. In some embodiments, a patient with moderate or severe anhedonia is considered to have a high level of anhedonia. For example, a patient with a SHAPS score of 38 or greater is considered to have moderate to severe anhedonia that can be considered a high level of anhedonia. In some embodiments, a high level of anhedonia is reflected by a SHAPS score of at least about 40, about 42, about 44, about 46, about 48, about 50, about 52, about 54, about 56, […]. A patient with mild or no anhedonia would be considered to have a low level of anhedonia that is assessed by physician/clinical judgment and/or one or more tests. For example, a patient with a SHAPS score of less than 38 is considered to have low anhedonia. In certain embodiments, a patient with mild anhedonia may have a SHAPS score of 20 to less than 38, for example, a SHAPS score of 20 to about 36, about 22 to about 36, about 24 to about 36, about 26 to about 36, about 26 to about 34, about 26 to about 32, about 26 to about 30, about 26 to about 28, about 28 to about 36, about 28 to about 36, about 30, to about 36, about 32 to about 36, about 34 to about 36, about 20 to about 34, about 22 to about 34, about 24 to about 34, about 26 to about 32, about 26 to about 30, about 26 to about 28, about 28 to about 36, about 28 to about 34, about 28 to about 32, about 28 to about 30, about 30 to about 36, about 30 to about 34, about 30 to about 32, about 32 to about 36, about 32 to about 34, or about 34 to about 36. Typically, a SHAPS score of less than 20 can be considered to correspond to normal hedonic functioning, and for purposes of this disclosure, would fall into the low category of anhedonia, e.g., a SHAPS score of less than 38.
iii. To investigate the effect of aticaprant versus placebo on depression related anhedonia as assessed by the SHAPS.
• (i) Depression: Montgomery-Åsberg Depression Rating Scale (MADRS), Clinical Global Impression-Severity (CGI-S), Symptoms of Major Depressive Disorder Scale (SMDDS), and Self-assessment of treatment experience (SATE) • (ii) Anhedonia: Snaith-Hamilton Pleasure Scale (SHAPS) • (iii) Anxiety: Structured Interview Guide for the Hamilton Anxiety scale (SIGH-A) and HAM-A6 • (iv) Effects on Cognition: The Cognitive and Physical Functioning Questionnaire (CPFQ) • (v) Safety assessments
Changes in SHAPS total score were analyzed with the same MMRM model used for MADRS total score. The estimated LS Mean difference with 80% 2-sided CI at treatment week 6 between aticaprant and placebo was −0.7 [−1.81, 0.41]. See, FIG. 7 and Tables 28 and 29 and FIG. 18. The corresponding p-value was 0.419.

[1] = eITT Analysis Set, Treatment Baseline
[2] = eITT Analysis Set, Treatment Week 1
[3] = eITT Analysis Set, Treatment Week 3
[4] = eITT Analysis Set, Treatment Week 4
[5] = eITT Analysis Set, Treatment Week 5
[6] = eITT Analysis Set, Treatment Week 6
[7] = eITT, Treatment Week 1, 10 mg adjunctive to SSRI/SNRI
[8] = eITT, Treatment Week 3, 10 mg adjunctive to SSRI/SNRI
[9] = eITT, Treatment Week 4, 10 mg adjunctive to SSRI/SNRI
[10] = eITT, Treatment Week 5, 10 mg adjunctive to SSRI/SNRI
[11] = eITT, Treatment Week 6, 10 mg adjunctive to SSRI/SNRI
[12] = fITT Analysis Set, Baseline/Day 22, Table 42
[13] = fITT Analysis Set, Treatment Baseline
[14] = fITT Analysis Set, Treatment Week 1
[15] = fITT Analysis Set, Treatment Week 3
[16] = fITT Analysis Set, Treatment Week 4
[17] = fITT Analysis Set, Treatment Week 5
[18] = fITT Analysis Set, Treatment Week 6

SMILES: Cc1cc(C)cc(C2CCCN2Cc2ccc(Oc3ccc(C(N)=O)cc3F)cc2)c1 (centres unmarked) [aticaprant, 3-fluoro-4-4-2-(3,5-dimethylphenyl)pyrrolidin-1-yl-methylphenoxybenzamide]
- SHAPS total score estimated LS mean difference between aticaprant and placebo, MMRM (Treatment Week 6, population not given, follows Table 29 (fITT)): −0.8
- Frequency of subjects: High Level of Anhedonia (SHAPS Total Score >= 38), % [1]: (43.33%)
- Frequency of subjects: Low Level of Anhedonia (20 <= SHAPS Total Score < 38), % [1]: 56.67%
- SHAPS Total Score Change from Baseline Mean (SD) [2]: −1.9
- SHAPS Total Score Mean (SD) [2]: 34.5
- SHAPS Total Score Change from Baseline LSMean (SE) [2]: −1.7
- SHAPS Total Score LSMean Difference (SE) Treatment Placebo [2]: −0.8 (0.86)
- SHAPS Total Score Change from Baseline Mean (SD) [3]: −3.4
- SHAPS Total Score Mean (SD) [3]: 33.0
- SHAPS Total Score Change from Baseline LSMean (SE) [3]: −3.2
- SHAPS Total Score LSMean Difference (SE) Treatment Placebo [3]: −1.4 (0.86)
- SHAPS Total Score Change from Baseline Mean (SD) [4]: −4.5
- SHAPS Total Score Mean (SD) [4]: 32.0
- SHAPS Total Score Change from Baseline LSMean (SE) [4]: −4.3
- SHAPS Total Score LSMean Difference (SE) Treatment Placebo [4]: −1.4 (0.86)
- SHAPS Total Score Change from Baseline Mean (SD) [5]: −4.3
- SHAPS Total Score Mean (SD) [5]: 32.4
- SHAPS Total Score Change from Baseline LSMean (SE) [5]: −4.0
- SHAPS Total Score LSMean Difference (SE) Treatment Placebo [5]: −0.5 (0.87)
- Frequency of subjects: High Level of Anhedonia (SHAPS Total Score >= 38), % [6]: (13.56%)
- Frequency of subjects: Low Level of Anhedonia (20 <= SHAPS Total Score < 38), % [6]: 81.36%
- Frequency of subjects: No Anhedonia (SHAPS Total Score < 20), % [6]: 5.08%
- SHAPS Total Score Change from Baseline Mean (SD) [6]: −4.6
- SHAPS Total Score Mean (SD) [6]: 31.9
- SHAPS Total Score Change from Baseline LSMean (SE) [6]: −4.4
- SHAPS Total Score LSMean Difference (SE) Treatment Placebo [6]: −0.7 (0.87)
- SHAPS Total Score Mean Change from Baseline (SD) [7]: −1.9 (4.30)
- SHAPS Total Score Mean Change to Placebo (SD pooled) [7]: −0.6 (3.77)
- SHAPS Total Score Effect Size (eITT, Treatment Week 1, vs placebo): −0.15
- SHAPS Total Score Mean Change from Baseline (SD) [8]: −3.4 (5.25)
- SHAPS Total Score Mean Change to Placebo (SD pooled) [8]: −1.2 (4.96)
- SHAPS Total Score Effect Size (eITT, Treatment Week 3, vs placebo): −0.25
- SHAPS Total Score Mean Change from Baseline (SD) [9]: −4.5 (5.89)
- SHAPS Total Score Mean Change to Placebo (SD pooled) [9]: −1.2 (5.21)
- SHAPS Total Score Effect Size (eITT, Treatment Week 4, vs placebo): −0.23
- SHAPS Total Score Mean Change from Baseline (SD) [10]: −4.3 (6.07)
- SHAPS Total Score Mean Change to Placebo (SD pooled) [10]: −0.4 (5.49)
- SHAPS Total Score Effect Size (eITT, Treatment Week 5, vs placebo): −0.08
- SHAPS total score estimated LS mean difference between aticaprant and placebo, MMRM (eITT, Treatment Week 6): −0.7
- SHAPS Total Score Mean Change from Baseline (SD) [11]: −4.6 (6.23)
- SHAPS Total Score Mean Change to Placebo (SD pooled) [11]: −0.4 (5.66)
- Frequency of subjects: Anhedonia (SHAPS Total Score >=20), % [12]: 98.8%
- Frequency of subjects: No Anhedonia (SHAPS Total Score < 20), % [12]: 1.2%
- Frequency of subjects: High Level of Anhedonia (SHAPS Total Score >= 38), % [13]: 36.14%
- Frequency of subjects: Low Level of Anhedonia (20 >= SHAPS Total Score <38), % [13]: 62.65%
- Frequency of subjects: No Anhedonia (SHAPS Total Score < 20), % (fITT Analysis Set, Treatment Baseline, Table 44): 1.2%
- SHAPS Total Score Mean (SD) [14]: 32.9
- SHAPS Total Score Mean Change to Placebo (SD pooled) [14]: −0.6 (3.82)
- SHAPS Total Score Change from Baseline Mean (SD) (fITT Analysis Set, Treatment Week 1 (Table 29)): −2.0
- SHAPS Total Score Mean Change from Baseline (SD) (fITT Analysis Set, Treatment Week 1 (Table 30)): −2.0 (4.05)
- SHAPS Total Score Change from Baseline LSMean (SE) [14]: −1.9
- SHAPS Total Score LSMean Difference (SE) Treatment Placebo [14]: −1.0 (0.72)
- SHAPS Total Score Effect Size [14]: −0.15
- SHAPS Total Score Mean (SD) [15]: 31.9
- SHAPS Total Score Mean Change to Placebo (SD pooled) [15]: −1.0 (5.09)
- SHAPS Total Score Change from Baseline Mean (SD) (fITT Analysis Set, Treatment Week 3 (Table 29)): −3.2
- SHAPS Total Score Mean Change from Baseline (SD) (fITT Analysis Set, Treatment Week 3 (Table 30)): −3.2 (5.07)
- SHAPS Total Score Change from Baseline LSMean (SE) [15]: −3.1
- SHAPS Total Score LSMean Difference (SE) Treatment Placebo [15]: −1.4 (0.73)
- SHAPS Total Score Effect Size [15]: −0.20
- SHAPS Total Score Mean (SD) [16]: 30.8
- SHAPS Total Score Mean Change to Placebo (SD pooled) [16]: −1.2 (5.08)
- SHAPS Total Score Change from Baseline Mean (SD) (fITT Analysis Set, Treatment Week 4 (Table 29)): −4.2
- SHAPS Total Score Mean Change from Baseline (SD) (fITT Analysis Set, Treatment Week 4 (Table 30)): −4.2 (5.70)
- SHAPS Total Score Change from Baseline LSMean (SE) [16]: −4.1
- SHAPS Total Score LSMean Difference (SE) Treatment Placebo [16]: −1.6 (0.73)
- SHAPS Total Score Effect Size [16]: −0.23
- SHAPS Total Score Mean (SD) [17]: 30.9
- SHAPS Total Score Mean Change to Placebo (SD pooled) [17]: −0.5 (5.24)
- SHAPS Total Score Change from Baseline Mean (SD) (fITT Analysis Set, Treatment Week 5 (Table 29)): −4.3
- SHAPS Total Score Mean Change from Baseline (SD) (fITT Analysis Set, Treatment Week 5 (Table 30)): −4.3 (5.70)
- SHAPS Total Score Change from Baseline LSMean (SE) [17]: −4.1
- SHAPS Total Score LSMean Difference (SE) Treatment Placebo [17]: −0.8 (0.73)
- SHAPS Total Score Effect Size [17]: −0.09
- Frequency of subjects: High Level of Anhedonia (SHAPS Total Score >= 38), % [18]: 10.39%
- Frequency of subjects: Low Level of Anhedonia (20 >= SHAPS Total Score <38), % [18]: 80.52%
- Frequency of subjects: No Anhedonia (SHAPS Total Score < 20), % [18]: 9.09%
- SHAPS Total Score Mean (SD) [18]: 30.5
- SHAPS Total Score Mean Change to Placebo (SD pooled) [18]: −0.5 (5.45)
- SHAPS Total Score Change from Baseline Mean (SD) (fITT Analysis Set, Treatment Week 6 (Table 29)): −4.7
- SHAPS Total Score Mean Change from Baseline (SD) (fITT Analysis Set, Treatment Week 6 (Table 30)): −4.7 (5.91)
- SHAPS Total Score Change from Baseline LSMean (SE) [18]: −4.5
- SHAPS Total Score LSMean Difference (SE) Treatment Placebo [18]: −0.8 (0.73)
- SHAPS Total Score Effect Size [18]: −0.08
- SHAPS total score mean change from treatment baseline (SD) (fITT, Treatment Week 6): −4.7 (5.91)
- SHAPS total score observed effect size (fITT, Treatment Week 6): 0.08
